Read-outs that look alike come from different tables or passages of the source.
Tests used:
[1] = tested on: HIV-1 laboratory strain, NL4-3; assay: MT-4 cytoprotection assay; assay type: cell-based
Procedure: The HTLV-1 transformed T cell line, MT-4, is highly susceptible to HIV-1 infection. Anti-HIV-1 agents were evaluated in this target cell line by protection from the HIV-induced cytopathic effect. In this assay, viability of both HIV-1 and mock-infected cells was assessed in a […] assay that monitors the ability of metabolically-active cells to reduce the tetrazolium salt WST-1. Cytoprotection by antiviral compounds is indicated by the positive readout of increased WST-1 cleavage.
Briefly, exponentially growing MT-4 cells were mock-infected or batch-infected with the HIV-1 laboratory strain, NL4-3, at a multiplicity of infection of 0.0005. Following a two hour infection, the cells were washed to remove unbound virus and plated in the presence of increasing concentrations of compound. After four days incubation, cytoprotection in the infected cells and compound toxicity in mock-infected cells were analyzed using the WST-1 assay.

HIV-1NL4-3 = assay: P4-MAGI assay; assay type: cell-based
Outline: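 HeLa-derived CD4+ P4 cells carrying an LTR-driven lacZ were infected with HIV-1NL4-3 at MOI 1 with DEAE-Dextran, then compound added in increasing concentrations right after virus; infection reported as Tat-induced β-galactosidase. TC50 measured by WST-1 in mock-infected cells.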

[2] = Human immunodeficiency virus 1, NL43, MT4, 96 h, MT-4 cells, four days incubation, WST-1 readout, read-out: MT4 EC50
[3] = Human immunodeficiency virus 1, NL43, less than about 100 nm, read-out: MT-4 assay EC50 (concentration of compound that reduces the virus induced cytopathic effect by 50%)
[4] = Human immunodeficiency virus 1, 24 h, P4 cells, 24 hour incubation, β-galactosidase expression, read-out: P4-MAGI IC50
[5] = Human immunodeficiency virus 1, text statement, less than about 100 nm, read-out: P4-MAGI assay IC50

C=C(C)[C@@H]1CC[C@]2(C(=O)NCc3cccc(C(=O)NCCc4ccc(C(=O)O)s4)c3)CC[C@]3(C)C(CCC4[C@@]5(C)CC[C@H](O)C(C)(C)C5CC[C@]43C)C12 (stereo partly shown) [Example 48]
EC50 [1, 2]: 0.063 µM
EC50 [1, 3]: < 0.1 µM
IC50 (HIV-1NL4-3; [4]): 0.029 µM
IC50 (HIV-1NL4-3; [5]): < 0.1 µM

C=C(C)[C@@H]1CC[C@]2(C(=O)NCCc3cccc(C(=O)NCCCCC(=O)O)c3)CC[C@]3(C)C(CCC4[C@@]5(C)CC[C@H](O)C(C)(C)C5CC[C@]43C)C12 (stereo partly shown) [Example 56]
EC50 [1, 2]: 0.31 µM
IC50 (HIV-1NL4-3; [4]): 0.0467 µM
IC50 (HIV-1NL4-3; [5]): < 0.1 µM

C=C(C)[C@@H]1CC[C@]2(C(=O)NCCc3cccc(C(=O)NCCC(=O)O)c3)CC[C@]3(C)C(CCC4[C@@]5(C)CC[C@H](O)C(C)(C)C5CC[C@]43C)C12 (stereo partly shown) [Example 57]
EC50 [1, 2]: 1.2 µM
IC50 (HIV-1NL4-3; [4]): 0.0982 µM
IC50 (HIV-1NL4-3; [5]): < 0.1 µM

C=C(C)[C@@H]1CC[C@]2(C(=O)NCCc3cccc(C(=O)NCc4cccc(C(=O)O)c4)c3)CC[C@]3(C)C(CCC4[C@@]5(C)CC[C@H](O)C(C)(C)C5CC[C@]43C)C12 (stereo partly shown) [Example 58]
EC50 [1, 2]: 0.018 µM
EC50 [1, 3]: < 0.1 µM
IC50 (HIV-1NL4-3; [4]): 0.0186 µM
IC50 (HIV-1NL4-3; [5]): < 0.1 µM

C=C(C)[C@@H]1CC[C@]2(C(=O)NCCc3cccc(C(=O)NCCc4cccc(C(=O)O)c4)c3)CC[C@]3(C)C(CCC4[C@@]5(C)CC[C@H](O)C(C)(C)C5CC[C@]43C)C12 (stereo partly shown) [Example 59]
EC50 [1, 2]: 0.068 µM
EC50 [1, 3]: < 0.1 µM
IC50 (HIV-1NL4-3; [4]): 0.0661 µM
IC50 (HIV-1NL4-3; [5]): < 0.1 µM

C=C(C)[C@@H]1CC[C@]2(C(=O)NCCc3cccc(C(=O)Nc4cccc(C(=O)O)c4)c3)CC[C@]3(C)C(CCC4[C@@]5(C)CC[C@H](O)C(C)(C)C5CC[C@]43C)C12 (stereo partly shown) [Example 60]
EC50 [1, 2]: 0.248 µM
IC50 (HIV-1NL4-3; [4]): 0.031 µM
IC50 (HIV-1NL4-3; [5]): < 0.1 µM

C=C(C)[C@@H]1CC[C@]2(C(=O)NCCc3cccc(C(=O)Nc4cc(C(=O)O)ccc4N)c3)CC[C@]3(C)C(CCC4[C@@]5(C)CC[C@H](O)C(C)(C)C5CC[C@]43C)C12 (stereo partly shown) [Example 61]
EC50 [1, 2]: 2.3 µM
IC50 (HIV-1NL4-3; [4]): 0.065 µM
IC50 (HIV-1NL4-3; [5]): < 0.1 µM

C=C(C)[C@@H]1CC[C@]2(C(=O)NCCc3cccc(C(=O)NCC(=O)OCC)c3)CC[C@]3(C)C(CCC4[C@@]5(C)CC[C@H](O)C(C)(C)C5CC[C@]43C)C12 (stereo partly shown) [Example 62]
EC50 [1, 2]: 0.23 µM
IC50 (HIV-1NL4-3; [4]): 0.0404 µM
IC50 (HIV-1NL4-3; [5]): < 0.1 µM

C=C(C)[C@@H]1CC[C@]2(C(=O)NCCc3cccc(C(=O)NC(CCC(=O)OC)C(=O)OC)c3)CC[C@]3(C)C(CCC4[C@@]5(C)CC[C@H](O)C(C)(C)C5CC[C@]43C)C12 (stereo partly shown) [Example 63]
EC50 [1, 2]: 0.09 µM
EC50 [1, 3]: < 0.1 µM
IC50 (HIV-1NL4-3; [4]): 0.0359 µM
IC50 (HIV-1NL4-3; [5]): < 0.1 µM

C=C(C)[C@@H]1CC[C@]2(C(=O)NCCc3cccc(C(=O)N[C@@H](CC(C)C)[C@@H](O)CC(=O)O)c3)CC[C@]3(C)C(CCC4[C@@]5(C)CC[C@H](O)C(C)(C)C5CC[C@]43C)C12 (stereo partly shown) [Example 65]
EC50 [1, 2]: 0.083 µM
EC50 [1, 3]: < 0.1 µM
IC50 (HIV-1NL4-3; [4]): 0.156 µM

C=C(C)[C@@H]1CC[C@]2(C(=O)NCCc3cccc(C(=O)NCc4ccc(C(=O)O)cc4)c3)CC[C@]3(C)C(CCC4[C@@]5(C)CC[C@H](O)C(C)(C)C5CC[C@]43C)C12 (stereo partly shown) [Example 67]
EC50 [1, 2]: 0.023 µM
EC50 [1, 3]: < 0.1 µM
IC50 (HIV-1NL4-3; [4]): 0.0075 µM
IC50 (HIV-1NL4-3; [5]): < 0.1 µM

C=C(C)[C@@H]1CC[C@]2(C(=O)NCCc3cccc(C(=O)NCCc4ccc(C(=O)O)cc4)c3)CC[C@]3(C)C(CCC4[C@@]5(C)CC[C@H](O)C(C)(C)C5CC[C@]43C)C12 (stereo partly shown) [Example 68]
EC50 [1, 2]: 0.064 µM
EC50 [1, 3]: < 0.1 µM
IC50 (HIV-1NL4-3; [4]): 0.0152 µM
IC50 (HIV-1NL4-3; [5]): < 0.1 µM

C=C(C)[C@@H]1CC[C@]2(C(=O)NCCc3cccc(C(=O)NCc4ccc(C(=O)O)cc4F)c3)CC[C@]3(C)C(CCC4[C@@]5(C)CC[C@H](O)C(C)(C)C5CC[C@]43C)C12 (stereo partly shown) [Example 69]
EC50 [1, 2]: 0.67 µM
IC50 (HIV-1NL4-3; [4]): 0.011 µM
IC50 (HIV-1NL4-3; [5]): < 0.1 µM

C=C(C)[C@@H]1CC[C@]2(C(=O)NCCc3cccc(C(=O)NCc4ccc(C(=O)O)s4)c3)CC[C@]3(C)C(CCC4[C@@]5(C)CC[C@H](O)C(C)(C)C5CC[C@]43C)C12 (stereo partly shown) [Example 70]
EC50 [1, 2]: 0.0016 µM
EC50 [1, 3]: < 0.1 µM
IC50 (HIV-1NL4-3; [4]): 0.0197 µM
IC50 (HIV-1NL4-3; [5]): < 0.1 µM

C=C(C)[C@@H]1CC[C@]2(C(=O)NCCc3cccc(C(=O)NCC(N)=O)c3)CC[C@]3(C)C(CCC4[C@@]5(C)CC[C@H](O)C(C)(C)C5CC[C@]43C)C12 (stereo partly shown) [Example 72]
EC50 [1, 2]: 10 µM
IC50 (HIV-1NL4-3; [4]): 0.194 µM

C=C(C)[C@@H]1CC[C@]2(C(=O)NCCc3cccc(C(=O)NCc4cccc(C(=O)O)c4F)c3)CC[C@]3(C)C(CCC4[C@@]5(C)CC[C@H](O)C(C)(C)C5CC[C@]43C)C12 (stereo partly shown) [Example 73]
EC50 [1, 2]: 0.0015 µM
EC50 [1, 3]: < 0.1 µM
IC50 (HIV-1NL4-3; [4]): 0.0162 µM
IC50 (HIV-1NL4-3; [5]): < 0.1 µM

C=C(C)[C@@H]1CC[C@]2(C(=O)NCCc3cccc(C(=O)NCc4cccc(C(=O)OC)c4F)c3)CC[C@]3(C)C(CCC4[C@@]5(C)CC[C@H](O)C(C)(C)C5CC[C@]43C)C12 (stereo partly shown) [Example 74]
EC50 [1, 2]: 0.0008 µM
EC50 [1, 3]: < 0.1 µM
IC50 (HIV-1NL4-3; [4]): 0.0276 µM
IC50 (HIV-1NL4-3; [5]): < 0.1 µM

C=C(C)[C@@H]1CC[C@]2(C(=O)NCCc3cccc(C(=O)NCCc4ccc(C(=O)O)cc4F)c3)CC[C@]3(C)C(CCC4[C@@]5(C)CC[C@H](O)C(C)(C)C5CC[C@]43C)C12 (stereo partly shown) [Example 75]
EC50 [1, 2]: 0.0014 µM
EC50 [1, 3]: < 0.1 µM
IC50 (HIV-1NL4-3; [4]): 0.0363 µM
IC50 (HIV-1NL4-3; [5]): < 0.1 µM

C=C(C)[C@@H]1CC[C@]2(C(=O)NCCc3cccc(C(=O)NCc4ccc(C(=O)O)cn4)c3)CC[C@]3(C)C(CCC4[C@@]5(C)CC[C@H](O)C(C)(C)C5CC[C@]43C)C12 (stereo partly shown) [Example 76]
EC50 [1, 2]: 0.089 µM
EC50 [1, 3]: < 0.1 µM
IC50 (HIV-1NL4-3; [4]): 0.0104 µM
IC50 (HIV-1NL4-3; [5]): < 0.1 µM

C=C(C)[C@@H]1CC[C@]2(C(=O)NCc3cccc(CNCc4nc5ccc(C(=O)O)cc5[nH]4)c3)CC[C@]3(C)C(CCC4[C@@]5(C)CC[C@H](O)C(C)(C)C5CC[C@]43C)C12 (stereo partly shown) [Example 80]
EC50 [1, 2]: 1 µM
IC50 (HIV-1NL4-3; [4]): 0.242 µM

C=C(C)[C@@H]1CC[C@]2(C(=O)NCc3ccnc(C(=O)NCCc4ccc(C(=O)O)cc4)c3)CC[C@]3(C)C(CCC4[C@@]5(C)CC[C@H](O)C(C)(C)C5CC[C@]43C)C12 (stereo partly shown) [Example 92]
EC50 [1, 2]: 4.87 µM
IC50 (HIV-1NL4-3; [4]): 0.121 µM

C=C(C)[C@@H]1CC[C@]2(C(=O)NCCc3cccc(C(=O)NCc4ccc(C(=O)OC)cc4)c3F)CC[C@]3(C)C(CCC4[C@@]5(C)CC[C@H](O)C(C)(C)C5CC[C@]43C)C12 (stereo partly shown) [Example 93]
EC50 [1, 2]: 0.04 µM
EC50 [1, 3]: < 0.1 µM
IC50 (HIV-1NL4-3; [4]): 0.0339 µM
IC50 (HIV-1NL4-3; [5]): < 0.1 µM

C=C(C)[C@@H]1CC[C@]2(C(=O)NCCc3cccc(C(=O)NCc4ccc(C(=O)O)cc4)c3F)CC[C@]3(C)C(CCC4[C@@]5(C)CC[C@H](O)C(C)(C)C5CC[C@]43C)C12 (stereo partly shown) [Example 94]
EC50 [1, 2]: 0.29 µM
IC50 (HIV-1NL4-3; [4]): 0.0705 µM
IC50 (HIV-1NL4-3; [5]): < 0.1 µM

C=C(C)[C@@H]1CC[C@]2(C(=O)NCc3cc(C(=O)NCCc4ccc(C(=O)O)cc4)ccc3F)CC[C@]3(C)C(CCC4[C@@]5(C)CC[C@H](O)C(C)(C)C5CC[C@]43C)C12 (stereo partly shown) [Example 95]
EC50 [1, 2]: 0.0015 µM
EC50 [1, 3]: < 0.1 µM
IC50 (HIV-1NL4-3; [4]): 0.0112 µM
IC50 (HIV-1NL4-3; [5]): < 0.1 µM

C=C(C)[C@@H]1CC[C@]2(C(=O)NCc3cc(C(=O)NCCc4ccc(C(=O)OC)cc4)ccc3F)CC[C@]3(C)C(CCC4[C@@]5(C)CC[C@H](O)C(C)(C)C5CC[C@]43C)C12 (stereo partly shown) [Example 96]
EC50 [1, 2]: 0.0035 µM
EC50 [1, 3]: < 0.1 µM
IC50 (HIV-1NL4-3; [4]): 0.033 µM
IC50 (HIV-1NL4-3; [5]): < 0.1 µM

C=C(C)[C@@H]1CC[C@]2(C(=O)NCc3cc(C(=O)NCCc4cccc(C(=O)O)c4)ccc3F)CC[C@]3(C)C(CCC4[C@@]5(C)CC[C@H](O)C(C)(C)C5CC[C@]43C)C12 (stereo partly shown) [Example 97]
EC50 [1, 2]: 0.001 µM
EC50 [1, 3]: < 0.1 µM
IC50 (HIV-1NL4-3; [4]): 0.0237 µM
IC50 (HIV-1NL4-3; [5]): < 0.1 µM

C=C(C)[C@@H]1CC[C@]2(C(=O)NCc3cc(C(=O)NCCc4cccc(C(=O)OC)c4)ccc3F)CC[C@]3(C)C(CCC4[C@@]5(C)CC[C@H](O)C(C)(C)C5CC[C@]43C)C12 (stereo partly shown) [Example 98]
EC50 [1, 2]: 0.013 µM
EC50 [1, 3]: < 0.1 µM
IC50 (HIV-1NL4-3; [4]): 0.0577 µM
IC50 (HIV-1NL4-3; [5]): < 0.1 µM

— US20090275583A1, “ANTIVIRAL COMPOUNDS AND USE THEREOF” (Myriad Genetics, Incorporated, priority 2006, published 2009)
